Source: US8513243B2, “ABT-263 crystalline forms” (AbbVie Inc., priority 2009, dated 2013)

Assays:
[1] = sulfoxide formation in lipid solution; assay type: physicochemical; conditions: formulated in lipid solution, in the absence of antioxidant; compared with salt form, e.g. ABT-263 bis-HCl
[2] = tested on: small-cell lung cancer (SCLC) and lymphoid malignancies; conditions: against SCLC and lymphoid malignancies; cited from earlier work
[3] = dissolution in a lipid carrier when preparing a liquid formulation; assay type: physicochemical; conditions: solution in a lipid carrier; compared with amorphous form

CC1(C)CCC(c2ccc(Cl)cc2)=C(CN2CCN(c3ccc(C(=O)NS(=O)(=O)c4ccc(N[C@H](CCN5CCOCC5)CSc5ccccc5)c(S(=O)(=O)C(F)(F)F)c4)cc3)CC2)C1 [ABT-263 free base, N-(4-(4-((2-(4-chlorophenyl)-5,5-dimethyl-1-cyclohex-1-en-1-yl)methyl)piperazin-1-yl)benzoyl)-4-(((1R)-3-(morpholin-4-yl)-1-((phenylsulfanyl)methyl)propyl)amino)-3-((trifluoromethyl)sulfonyl)benzenesulfonamide]
susceptibility to sulfoxide formation [1]: less susceptible to sulfoxide formation than ABT-263 in salt form

CN(C)CC[C@H](CSc1ccccc1)Nc1ccc(S(=O)(=O)NC(=O)c2ccc(N3CCN(Cc4ccccc4-c4ccc(Cl)cc4)CC3)cc2)cc1[N+](=O)[O-] [ABT-737, N-(4-(4-((4′-chloro-(1,1′-biphenyl)-2-yl)methyl)piperazin-1-yl)benzoyl)-4-(((1R)-3-(dimethylamino)-1-((phenylsulfanyl)methyl)propyl)amino)-3-nitrobenzene-sulfonamide]
single-agent activity [2]: single-agent activity

CC1(C)CCC(c2ccc(Cl)cc2)=C(CN2CCN(c3ccc(C(=O)NS(=O)(=O)c4ccc(N[C@H](CCN5CCOCC5)CSc5ccccc5)c(S(=O)(=O)C(F)(F)F)c4)cc3)CC2)C1 [crystalline ABT-263, N-(4-(4-((2-(4-chlorophenyl)-5,5-dimethyl-1-cyclohex-1-en-1-yl)methyl)piperazin-1-yl)benzoyl)-4-(((1R)-3-(morpholin-4-yl)-1-((phenylsulfanyl)methyl)propyl)amino)-3-((trifluoromethyl)sulfonyl)benzenesulfonamide]
dissolution behaviour [3]: dissolves faster and has less tendency to form a gel during dissolution
